Assay results as given in patent publication US5250542A, “Peripherally selective piperidine carboxylate opioid antagonists” (Eli Lilly and Company, priority 1992, dated 1993).

biological target: T1, mu receptor (Rattus norvegicus, UniProt P33535); assay: opioid receptor binding assay, [3H] NAL (tritiated naloxone), mu receptor; design: species or system rat (Male Sprague Dawley), brain minus cerebellum; conditions: not given
T1 construct: rat whole brain minus cerebellum for mu was homogenized; from tissue; host or cells: brain of male Sprague Dawley rats, whole brain minus cerebellum, homogenate fraction
T1 sequence (P33535 whole entry): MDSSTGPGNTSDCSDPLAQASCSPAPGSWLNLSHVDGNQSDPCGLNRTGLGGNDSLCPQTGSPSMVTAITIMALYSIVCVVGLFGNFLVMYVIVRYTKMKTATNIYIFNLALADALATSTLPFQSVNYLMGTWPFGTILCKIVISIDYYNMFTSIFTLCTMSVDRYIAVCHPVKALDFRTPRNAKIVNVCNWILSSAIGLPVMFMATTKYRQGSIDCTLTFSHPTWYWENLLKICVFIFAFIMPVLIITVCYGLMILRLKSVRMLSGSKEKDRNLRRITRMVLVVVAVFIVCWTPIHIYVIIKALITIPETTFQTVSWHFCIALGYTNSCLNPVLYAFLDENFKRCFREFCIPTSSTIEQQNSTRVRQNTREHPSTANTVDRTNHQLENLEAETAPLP
Procedure, shortened: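 Displacement of [3H]naloxone was measured on rat whole brain minus cerebellum membranes, preincubated 20 min and incubated 20 min at 37° C, with filtration separating bound ligand. Ki was derived from IC50 and ligand KD. Percent displacement was also recorded at 10 nM and 100 nM test compound.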

Row | SMILES | Ki [nM]
1 | C[C@H]1CN(CC(Cc2ccccc2)C(=O)NCC(=O)NCC(=O)NCc2ccccc2)CC[C@@]1(C)c1cccc(O)c1 (relative stereo) [Example 73] | 1.8
2 | CCOC(=O)CN(C)C(=O)CNC(=O)C(Cc1ccccc1)CN1CC[C@@](C)(c2cccc(O)c2)[C@@H](C)C1 (relative stereo) [Example 75] | 1.15
3 | CCNC(=O)CNC(=O)CNC(=O)C(Cc1ccccc1)CN1CC[C@@](C)(c2cccc(O)c2)[C@@H](C)C1 (relative stereo) [Example 77] | 1.35

same assay, conditions: 20 min, 10 nM test compound; [3H] naloxone 0.5 nM; read-out: % displacement at 10 nM

Row | SMILES | inhibition at 0.01 µM [%]
4 | COC(=O)COC(=O)CNC(=O)C(Cc1ccccc1)CN1CC[C@@](C)(c2cccc(O)c2)[C@@H](C)C1 (relative stereo) [Example 85] | 93
5 | CCCCCOC(=O)CNC(=O)C(Cc1ccccc1)CN1CC[C@@](C)(c2cccc(O)c2)[C@@H](C)C1 (relative stereo) [Example 86] | 74
6 | C[C@H]1CN(CC(Cc2ccccc2)C(=O)NCC(=O)OCC(N)=O)CC[C@@]1(C)c1cccc(O)c1 (relative stereo) [Example 87] | 94
7 | CNC(=O)COC(=O)CNC(=O)C(Cc1ccccc1)CN1CC[C@@](C)(c2cccc(O)c2)[C@@H](C)C1 (relative stereo) [Example 88] | 93
8 | CCNC(=O)COC(=O)CNC(=O)C(Cc1ccccc1)CN1CC[C@@](C)(c2cccc(O)c2)[C@@H](C)C1 (relative stereo) [Example 89] | 94
9 | C[C@H]1CN(CC(Cc2ccccc2)C(=O)NCC(=O)OCC(=O)N(C)C)CC[C@@]1(C)c1cccc(O)c1 (relative stereo) [Example 90] | 93
10 | C[C@H]1CN(CC(Cc2ccccc2)C(=O)NCC(=O)NCC2CCCCC2)CC[C@@]1(C)c1cccc(O)c1 (relative stereo) [Example 91] | 69

same assay, conditions: 20 min, 100 nM test compound; [3H] naloxone 0.5 nM; read-out: % displacement at 100 nM

Row | SMILES | inhibition at 0.1 µM [%]
11 | CCCCCOC(=O)CNC(=O)C(Cc1ccccc1)CN1CC[C@@](C)(c2cccc(O)c2)[C@@H](C)C1 (relative stereo) [Example 86] | 91
12 | C[C@H]1CN(CC(Cc2ccccc2)C(=O)NCC(=O)OCC(N)=O)CC[C@@]1(C)c1cccc(O)c1 (relative stereo) [Example 87] | 99
13 | CNC(=O)COC(=O)CNC(=O)C(Cc1ccccc1)CN1CC[C@@](C)(c2cccc(O)c2)[C@@H](C)C1 (relative stereo) [Example 88] | 99
14 | CCNC(=O)COC(=O)CNC(=O)C(Cc1ccccc1)CN1CC[C@@](C)(c2cccc(O)c2)[C@@H](C)C1 (relative stereo) [Example 89] | 99
15 | C[C@H]1CN(CC(Cc2ccccc2)C(=O)NCC(=O)OCC(=O)N(C)C)CC[C@@]1(C)c1cccc(O)c1 (relative stereo) [Example 90] | 99

same assay, conditions: 20 min, read-out: % displacement at 10 nM, 10 nM test compound; [3H] naloxone 0.5 nM

Row | SMILES | inhibition at 0.01 µM [%]
16 | C[C@H]1CN(CC(Cc2ccccc2)C(=O)NCC(=O)NCC(=O)NCc2ccccc2)CC[C@@]1(C)c1cccc(O)c1 (relative stereo) [Example 73] | 84
17 | CCOC(=O)CN(C)C(=O)CNC(=O)C(Cc1ccccc1)CN1CC[C@@](C)(c2cccc(O)c2)[C@@H](C)C1 (relative stereo) [Example 75] | 90
18 | CCNC(=O)CNC(=O)CNC(=O)C(Cc1ccccc1)CN1CC[C@@](C)(c2cccc(O)c2)[C@@H](C)C1 (relative stereo) [Example 77] | 88

same assay, conditions: 20 min, read-out: % displacement at 100 nM

Row | SMILES | inhibition at 0.1 µM [%]
19 | COC(=O)COC(=O)CNC(=O)C(Cc1ccccc1)CN1CC[C@@](C)(c2cccc(O)c2)[C@@H](C)C1 (relative stereo) [Example 85] | 98
20 | C[C@H]1CN(CC(Cc2ccccc2)C(=O)NCC(=O)NCC2CCCCC2)CC[C@@]1(C)c1cccc(O)c1 (relative stereo) [Example 91] | 94

same assay, conditions: 20 min, read-out: % displacement at 100 nM, 100 nM test compound; [3H] naloxone 0.5 nM

Row | SMILES | inhibition at 0.1 µM [%]
21 | C[C@H]1CN(CC(Cc2ccccc2)C(=O)NCC(=O)NCC(=O)NCc2ccccc2)CC[C@@]1(C)c1cccc(O)c1 (relative stereo) [Example 73] | 90
22 | CCOC(=O)CN(C)C(=O)CNC(=O)C(Cc1ccccc1)CN1CC[C@@](C)(c2cccc(O)c2)[C@@H](C)C1 (relative stereo) [Example 75] | 99
23 | CCNC(=O)CNC(=O)CNC(=O)C(Cc1ccccc1)CN1CC[C@@](C)(c2cccc(O)c2)[C@@H](C)C1 (relative stereo) [Example 77] | 95

biological target: T2, peripheral opioid receptors (Mus musculus, UniProt P42866); assay: precipitated diarrhea in morphine-maintained mice (peripheral opioid activity) and comparison with the writhing test; assay type: in vivo; conditions: higher ratio = greater relative antagonism of peripheral opioid receptors
T2 construct: Mice maintained (6 mice/cage) on 0.01M saccharin water with 1 g/1 morphine sulfate; from tissue; host or cells: living morphine-maintained mice (in vivo test; endogenous receptor)
T2 sequence (P42866 whole entry): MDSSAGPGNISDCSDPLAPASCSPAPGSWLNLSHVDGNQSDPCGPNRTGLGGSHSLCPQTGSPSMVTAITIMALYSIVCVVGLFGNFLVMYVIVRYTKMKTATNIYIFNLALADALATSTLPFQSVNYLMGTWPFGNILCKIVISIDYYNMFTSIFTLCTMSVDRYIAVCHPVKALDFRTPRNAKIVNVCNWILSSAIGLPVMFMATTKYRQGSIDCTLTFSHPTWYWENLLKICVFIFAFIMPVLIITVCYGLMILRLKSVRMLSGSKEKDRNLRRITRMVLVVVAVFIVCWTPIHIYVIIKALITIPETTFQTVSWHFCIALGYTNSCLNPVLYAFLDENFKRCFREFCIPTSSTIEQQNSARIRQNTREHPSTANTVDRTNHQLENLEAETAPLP
Procedure, shortened: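 Morphine-dependent mice (1 g/l morphine sulfate in drinking water ≥10 days, withdrawn 45 min before dosing) received antagonist subcutaneously or orally, 5 mice/dose. Diarrhea (and jumping) were scored over 30 min and doses lowered to find the diarrhea threshold. Peripheral selectivity was taken as writhing AD50 divided by diarrhea ED50.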

Row | SMILES | Ratio (AD50 mouse writhing test / ED50 mouse diarrhea test)
24 | C[C@H]1CN(CC(Cc2ccccc2)C(=O)NCC(=O)NCC(=O)NCc2ccccc2)CC[C@@]1(C)c1cccc(O)c1 (relative stereo) [Example 73] | 11
25 | CCOC(=O)CN(C)C(=O)CNC(=O)C(Cc1ccccc1)CN1CC[C@@](C)(c2cccc(O)c2)[C@@H](C)C1 (relative stereo) [Example 75] | 71
26 | CCNC(=O)CNC(=O)CNC(=O)C(Cc1ccccc1)CN1CC[C@@](C)(c2cccc(O)c2)[C@@H](C)C1 (relative stereo) [Example 77] | > 31
27 | COC(=O)COC(=O)CNC(=O)C(Cc1ccccc1)CN1CC[C@@](C)(c2cccc(O)c2)[C@@H](C)C1 (relative stereo) [Example 85] | 190
28 | CCCCCOC(=O)CNC(=O)C(Cc1ccccc1)CN1CC[C@@](C)(c2cccc(O)c2)[C@@H](C)C1 (relative stereo) [Example 86] | > 2353
29 | C[C@H]1CN(CC(Cc2ccccc2)C(=O)NCC(=O)OCC(N)=O)CC[C@@]1(C)c1cccc(O)c1 (relative stereo) [Example 87] | 27
30 | CNC(=O)COC(=O)CNC(=O)C(Cc1ccccc1)CN1CC[C@@](C)(c2cccc(O)c2)[C@@H](C)C1 (relative stereo) [Example 88] | 193
31 | CCNC(=O)COC(=O)CNC(=O)C(Cc1ccccc1)CN1CC[C@@](C)(c2cccc(O)c2)[C@@H](C)C1 (relative stereo) [Example 89] | < 1
32 | C[C@H]1CN(CC(Cc2ccccc2)C(=O)NCC(=O)OCC(=O)N(C)C)CC[C@@]1(C)c1cccc(O)c1 (relative stereo) [Example 90] | 22
33 | C[C@H]1CN(CC(Cc2ccccc2)C(=O)NCC(=O)NCC2CCCCC2)CC[C@@]1(C)c1cccc(O)c1 (relative stereo) [Example 91] | 8

same assay, conditions: mouse, 0.5 h, morphine-maintained mice; antagonist subcutaneous or oral; 30 min observation

Row | SMILES | ED50 [mg/kg]
34 | C[C@H]1CN(CC(Cc2ccccc2)C(=O)NCC(=O)NCC(=O)NCc2ccccc2)CC[C@@]1(C)c1cccc(O)c1 (relative stereo) [Example 73] | 1.73
35 | CCOC(=O)CN(C)C(=O)CNC(=O)C(Cc1ccccc1)CN1CC[C@@](C)(c2cccc(O)c2)[C@@H](C)C1 (relative stereo) [Example 75] | 0.073
36 | CCNC(=O)CNC(=O)CNC(=O)C(Cc1ccccc1)CN1CC[C@@](C)(c2cccc(O)c2)[C@@H](C)C1 (relative stereo) [Example 77] | 1.31
37 | COC(=O)COC(=O)CNC(=O)C(Cc1ccccc1)CN1CC[C@@](C)(c2cccc(O)c2)[C@@H](C)C1 (relative stereo) [Example 85] | 0.05
38 | CCCCCOC(=O)CNC(=O)C(Cc1ccccc1)CN1CC[C@@](C)(c2cccc(O)c2)[C@@H](C)C1 (relative stereo) [Example 86] | 0.017
39 | C[C@H]1CN(CC(Cc2ccccc2)C(=O)NCC(=O)OCC(N)=O)CC[C@@]1(C)c1cccc(O)c1 (relative stereo) [Example 87] | 0.71
40 | CNC(=O)COC(=O)CNC(=O)C(Cc1ccccc1)CN1CC[C@@](C)(c2cccc(O)c2)[C@@H](C)C1 (relative stereo) [Example 88] | 0.07
41 | CCNC(=O)COC(=O)CNC(=O)C(Cc1ccccc1)CN1CC[C@@](C)(c2cccc(O)c2)[C@@H](C)C1 (relative stereo) [Example 89] | > 10
42 | C[C@H]1CN(CC(Cc2ccccc2)C(=O)NCC(=O)OCC(=O)N(C)C)CC[C@@]1(C)c1cccc(O)c1 (relative stereo) [Example 90] | 0.1
43 | C[C@H]1CN(CC(Cc2ccccc2)C(=O)NCC(=O)NCC2CCCCC2)CC[C@@]1(C)c1cccc(O)c1 (relative stereo) [Example 91] | 0.5

biological target: T3, opioid receptor (Mus musculus, UniProt P42866); assay: mouse writhing analgesis test: block of morphine-induced analgesia; assay type: in vivo, CF-1 male mice; design: unit not given here; conditions: dose of antagonist that reduced the inhibition of writhing produced by 1.25 mg/kg morphine sulfate to 50%; subcutaneous, 20 min before acetic acid
T3 construct: Five CF-1 male mice (Charles River, Portage, Mich.); from tissue; host or cells: living CF-1 male mice (in vivo test; endogenous receptor)
T3 sequence (P42866 whole entry): as above
Procedure, shortened: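 Male CF-1 mice (~20 g, fasted overnight, n=5) dosed subcutaneously 20 min before i.p. 0.6% acetic acid; writhes counted for 10 min starting 5 min post-injection. Antagonism measured as blockade of morphine-induced inhibition of writhing, percent versus vehicle controls; ED50 defined as 50% writhing inhibition.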

Row | SMILES | AD50
44 | C[C@H]1CN(CC(Cc2ccccc2)C(=O)NCC(=O)NCC(=O)NCc2ccccc2)CC[C@@]1(C)c1cccc(O)c1 (relative stereo) [Example 73] | 20
45 | CCOC(=O)CN(C)C(=O)CNC(=O)C(Cc1ccccc1)CN1CC[C@@](C)(c2cccc(O)c2)[C@@H](C)C1 (relative stereo) [Example 75] | 5.2
46 | CCNC(=O)CNC(=O)CNC(=O)C(Cc1ccccc1)CN1CC[C@@](C)(c2cccc(O)c2)[C@@H](C)C1 (relative stereo) [Example 77] | > 40
47 | COC(=O)COC(=O)CNC(=O)C(Cc1ccccc1)CN1CC[C@@](C)(c2cccc(O)c2)[C@@H](C)C1 (relative stereo) [Example 85] | 9.5
48 | CCCCCOC(=O)CNC(=O)C(Cc1ccccc1)CN1CC[C@@](C)(c2cccc(O)c2)[C@@H](C)C1 (relative stereo) [Example 86] | > 40
49 | C[C@H]1CN(CC(Cc2ccccc2)C(=O)NCC(=O)OCC(N)=O)CC[C@@]1(C)c1cccc(O)c1 (relative stereo) [Example 87] | 19
50 | CNC(=O)COC(=O)CNC(=O)C(Cc1ccccc1)CN1CC[C@@](C)(c2cccc(O)c2)[C@@H](C)C1 (relative stereo) [Example 88] | 13.5
51 | CCNC(=O)COC(=O)CNC(=O)C(Cc1ccccc1)CN1CC[C@@](C)(c2cccc(O)c2)[C@@H](C)C1 (relative stereo) [Example 89] | 6.0
52 | C[C@H]1CN(CC(Cc2ccccc2)C(=O)NCC(=O)OCC(=O)N(C)C)CC[C@@]1(C)c1cccc(O)c1 (relative stereo) [Example 90] | 2.2
53 | C[C@H]1CN(CC(Cc2ccccc2)C(=O)NCC(=O)NCC2CCCCC2)CC[C@@]1(C)c1cccc(O)c1 (relative stereo) [Example 91] | 4.0
